Paper PMC3827198, “Characterisation of AmphiAmR11, an Amphioxus (Branchiostoma floridae) D2-Dopamine-Like G Protein-Coupled Receptor” (PLoS ONE, 2013)
Structures can show the parent of a compound that is named as a salt.

Legend:
AmphiAmR11 [1] = target: T1, AmphiAmR11 (Branchiostoma floridae, UniProt A0PF35); assay: ERK1/2 phosphorylation in AmphiAmR11-expressing CHO-K1 cells (Western blotting); format: cell-based; conditions: 1 μM antagonist
AmphiAmR4 = tested on: AmphiAmR4; parameters: method as in PMID 23183848; conditions: cited from earlier work
AmphiAmR11 [2] = target: T1, AmphiAmR11; assay: Block of tyramine-induced inhibition of forskolin-stimulated cAMP levels in AmphiAmR11-expressing CHO-K1 cells; format: cell-based; conditions: 1 μM antagonist, 30 nM tyramine, 10 µM forskolin
[3] = tested on: OctβRs, CG6989, CG6919 and CG7078; parameters: method as in PMID 15998303; conditions: cited from earlier work
AmphiAmR11 [4] = target: T1, AmphiAmR11; assay: Block of dopamine-induced ERK1/2 activation in AmphiAmR11-expressing CHO-K1 cells by antagonists; format: cell-based; conditions: 1 µM antagonist, 10 nM dopamine, 5 min

T1 sequence (A0PF35 entry or part of it): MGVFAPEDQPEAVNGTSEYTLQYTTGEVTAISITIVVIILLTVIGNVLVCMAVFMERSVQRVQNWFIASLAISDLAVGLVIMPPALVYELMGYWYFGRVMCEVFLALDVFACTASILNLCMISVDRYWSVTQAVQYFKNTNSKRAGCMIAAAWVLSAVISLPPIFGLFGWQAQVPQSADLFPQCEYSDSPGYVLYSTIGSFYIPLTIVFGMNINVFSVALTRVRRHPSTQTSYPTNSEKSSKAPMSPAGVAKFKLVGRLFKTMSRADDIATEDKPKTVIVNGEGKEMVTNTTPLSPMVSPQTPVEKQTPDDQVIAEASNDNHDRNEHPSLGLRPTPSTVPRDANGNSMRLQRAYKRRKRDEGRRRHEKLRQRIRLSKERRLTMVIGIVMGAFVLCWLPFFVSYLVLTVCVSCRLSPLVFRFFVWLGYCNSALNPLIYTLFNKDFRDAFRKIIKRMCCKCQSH

Effect of antagonist on ERK1/2 phosphorylation in the absence of dopamine (AmphiAmR11 [1]): did not exhibit any agonistic properties
Block of tyramine-induced inhibition of forskolin-stimulated cAMP levels (AmphiAmR11 [2]): fully block
Block of dopamine-induced ERK1/2 activation (AmphiAmR11 [4]): fully block
SMILES: Cc1ccc(N(CC2=NCCN2)c2cccc(O)c2)cc1 [phentolamine, phentolamine hydrochloride]
Agonist activity at AmphiAmR4 (AmphiAmR4): agonist properties
Agonist properties at Drosophila OctβRs [3]: agonist properties
